According to the NIST ThermoML archive (doi:10.1021/je060271a):

Settings: 323.15 K, Liquid, Vibrating tube method

CCCC(=O)OCC(COC(=O)CCC)(COC(=O)CCC)COC(=O)CCC [pentaerythritol tetrabutyrate]
Settings	mass density [kg/m3]
11242 kPa	1032.9
11279 kPa	1033
11316 kPa	1033
11352 kPa	1033
11384 kPa	1033.1
11409 kPa	1033
11434 kPa	1033.1
11464 kPa	1033
11489 kPa	1033.1
11520 kPa	1033.2
11545 kPa	1033.1
11573 kPa	1033.1
11598 kPa	1033.2
11625 kPa	1033.2
11655 kPa	1033.2
11681 kPa	1033.3
11713 kPa	1033.3
11740 kPa	1033.2
11766 kPa	1033.3
11793 kPa	1033.3
11825 kPa	1033.4
11853 kPa	1033.3
11880 kPa	1033.5
11914 kPa	1033.4
11944 kPa	1033.4
11971 kPa	1033.4
11999 kPa	1033.4
12033 kPa	1033.4
12061 kPa	1033.5
12089 kPa	1033.5
12122 kPa	1033.6
12151 kPa	1033.6
12180 kPa	1033.6
12214 kPa	1033.5
12243 kPa	1033.7
12272 kPa	1033.6
12367 kPa	1033.8
12397 kPa	1033.7
12432 kPa	1033.7
12462 kPa	1033.8
12499 kPa	1033.8
12530 kPa	1033.9
12555 kPa	1033.8
12591 kPa	1033.9
12623 kPa	1033.9
12660 kPa	1033.9
12691 kPa	1033.9
12724 kPa	1033.9
12762 kPa	1033.9
12794 kPa	1034.1
12826 kPa	1033.9
12858 kPa	1034
12897 kPa	1034.1
12930 kPa	1034.1
12969 kPa	1034.1
13003 kPa	1034.2
13037 kPa	1034.3
13072 kPa	1034.3
13115 kPa	1034.3
13152 kPa	1034.3
13184 kPa	1034.2
13211 kPa	1034.3
13233 kPa	1034.3
13255 kPa	1034.4
13281 kPa	1034.4
13303 kPa	1034.4
13326 kPa	1034.4
13352 kPa	1034.3
13375 kPa	1034.4
13398 kPa	1034.5
13420 kPa	1034.5
13447 kPa	1034.5
13470 kPa	1034.5
13493 kPa	1034.5
13520 kPa	1034.5
13543 kPa	1034.6
13570 kPa	1034.5
13593 kPa	1034.6
13616 kPa	1034.6
13639 kPa	1034.7
13667 kPa	1034.5
13690 kPa	1034.6
13718 kPa	1034.6
13742 kPa	1034.6
13766 kPa	1034.7
13794 kPa	1034.6
13819 kPa	1034.6
13843 kPa	1034.7
13867 kPa	1034.7
13896 kPa	1034.8
13920 kPa	1034.7
13945 kPa	1034.8
13974 kPa	1034.9
13998 kPa	1034.8
14027 kPa	1034.8
14052 kPa	1034.9
14215 kPa	1035
14240 kPa	1034.9
14265 kPa	1034.9
14296 kPa	1035.1
14322 kPa	1035
14348 kPa	1035.1
14379 kPa	1035
14405 kPa	1035
14431 kPa	1035
14462 kPa	1035.1
14490 kPa	1035
14518 kPa	1035.2
14544 kPa	1035.1
14571 kPa	1035.2
14603 kPa	1035.1
14630 kPa	1035.2
14658 kPa	1035.3
14690 kPa	1035.3
14717 kPa	1035.3
14749 kPa	1035.4
14805 kPa	1035.4
14833 kPa	1035.3
14867 kPa	1035.3
14895 kPa	1035.4
14923 kPa	1035.5
14957 kPa	1035.4
14986 kPa	1035.4
15014 kPa	1035.5
15048 kPa	1035.6
15077 kPa	1035.6
15105 kPa	1035.6
15140 kPa	1035.6
15169 kPa	1035.7
15199 kPa	1035.6
15229 kPa	1035.5
15265 kPa	1035.6
15294 kPa	1035.6
15325 kPa	1035.7
15360 kPa	1035.7
15390 kPa	1035.7
15421 kPa	1035.8
15456 kPa	1035.8
15487 kPa	1035.8
15517 kPa	1035.8
15554 kPa	1035.8
15585 kPa	1035.9
15616 kPa	1035.9
15653 kPa	1036
15685 kPa	1035.9
15716 kPa	1036
15748 kPa	1036
